The source made the active and inactive calls. How the calls were made is not given here.
System: rodent carcinogenicity bioassays, tumor incidence
Assay: CCRIS carcinogenicity studies
Summary of the method: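 NCI-built, expert-reviewed records of carcinogenicity and related test outcomes (mutagenicity, tumor promotion/inhibition) compiled from published and report sources, historical span 1985-2011, not updated.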

Compound: Nc1ccc(O)c(N)c1
- carcinogen call (Species: MOUSE, Strain/Sex: B6C3F1/FEMALE, Route: GAVAGE, Dose: 0, 19, 38 MG/KG IN CORN OIL 5 D/WK FOR 104 WK (STUDY DURATION: 2 YR), Dose: 0, 19, 38 MG/KG IN CORN OIL 5 D/WK FOR 104 WK (STUDY DURATION: 2 YR)): inactive; negative
- carcinogen call (Species: RAT, Strain/Sex: F344/FEMALE, Route: GAVAGE, Dose: 0, 12.5, 25 MG/KG IN CORN OIL 5 D/WK FOR 104 WK (STUDY DURATION: 2 YR), Dose: 0, 12.5, 25 MG/KG IN CORN OIL 5 D/WK FOR 104 WK (STUDY DURATION: 2 YR)): inactive; negative
- carcinogen call (Species: RAT, Strain/Sex: F344/MALE, Route: GAVAGE, Dose: 0, 12.5, 25 MG/KG IN CORN OIL 5 D/WK FOR 104 WK (STUDY DURATION: 2 YR)): inactive; negative

Compound: COC(=O)C1=C(C)NC(C)=C(C(=O)OCC(C)(C)CN(C)Cc2ccccc2)C1c1cc([N+](=O)[O-])ccc1F (configuration not stated)
- carcinogen call (Species: RAT, Strain/Sex: F344/FEMALE, Route: ORAL, Dose: 0, 0.67, 2, 6 MG/KG/D IN DIET FOR 104 WK (STUDY DURATION: 104 WK), Dose: 0, 0.67, 2, 6 MG/KG/D IN DIET FOR 104 WK (STUDY DURATION: 104 WK)): inactive; negative
- carcinogen call (Species: RAT, Strain/Sex: F344/MALE, Route: ORAL, Dose: 0, 0.67, 2, 6 MG/KG/D IN DIET FOR 104 WK (STUDY DURATION: 104 WK), Dose: 0, 0.67, 2, 6 MG/KG/D IN DIET FOR 104 WK (STUDY DURATION: 104 WK)): inactive; negative

Compound: COC(=O)c1ccc(C)cc1C1=NC(C)(C(C)C)C(=O)N1 (configuration not stated) (tested in a mixture with another compound)
- carcinogen call (Species: Mouse, Strain/Sex: CD-1/Female (65/Group), Route: Oral, Dose: 0, 130, 525, 2100 ppm 94.2% imazamethabenz-methyl in diet for 18 mo, study duration 18 mo, Dose: 0, 130, 525, 2100 ppm 94.2% imazamethabenz-methyl in diet for 18 mo, study duration 18 mo): inactive; negative
- carcinogen call (Species: Mouse, Strain/Sex: CD-1/Male (65/Group), Route: Oral, Dose: 0, 130, 525, 2100 ppm 94.2% imazamethabenz-methyl in diet for 18 mo, study duration 18 mo, Dose: 0, 130, 525, 2100 ppm 94.2% imazamethabenz-methyl in diet for 18 mo, study duration 18 mo): inactive; negative
- carcinogen call (Species: Rat, Strain/Sex: Crl:CD(SD)BR/Female (65/Group), Route: Oral, Dose: 0, 240, 1000, 4000 ppm 94.2% imazamethabenz-methyl in diet for 24 mo, study duration 24 mo, Dose: 0, 240, 1000, 4000 ppm 94.2% imazamethabenz-methyl in diet for 24 mo, study duration 24 mo): inactive; negative
- carcinogen call (Species: Rat, Strain/Sex: Crl:CD(SD)BR/Male (65/Group), Route: Oral, Dose: 0, 240, 1000, 4000 ppm 94.2% imazamethabenz-methyl in diet for 24 mo, study duration 24 mo, Dose: 0, 240, 1000, 4000 ppm 94.2% imazamethabenz-methyl in diet for 24 mo, study duration 24 mo): inactive; negative

Compound: CCOS(C)(=O)=O
- carcinogen call (Species: MOUSE, Route: INTRAPERITONEAL, Tumor Site: Type of Lesion: LUNG, KIDNEY): active; positive
- carcinogen call (Species: MOUSE, Route: SUBCUTANEOUS, Tumor Site: Type of Lesion: LUNG): active; positive
- carcinogen call (Species: MOUSE, Strain/Sex: ICR/FEMALE, Route: SUBCUTANEOUS, Dose: 0, 20 UMOL/MOUSE IN TRIOCTANOIN INTO LEFT FLANK, 1/WK FOR 52 WK (STUDY DURATION: 450 D), Tumor Site: Type of Lesion: THYMUS GLAND: LYMPHOMA, LUNG: ADENOMA): active; positive
- carcinogen call (Species: RAT, Route: INTRAPERITONEAL, Tumor Site: Type of Lesion: LUNG, KIDNEY): active; positive

Compound: CN(CC(=O)O)N=O
- carcinogen call (Species: MOUSE, Route: INTRAPERITONEAL, Tumor Site: Type of Lesion: LIVER): active; positive
- carcinogen call (Species: MOUSE, Route: ORAL, Tumor Site: Type of Lesion: NASAL CAVITY): active; positive
- carcinogen call (Species: RAT, Route: ORAL, Tumor Site: Type of Lesion: ESOPHAGUS): active; positive

Compound: CCOc1ccc(N(O)C(C)=O)cc1
- carcinogen call (Species: RAT, Strain/Sex: ALBINO/MALE, Route: ORAL, Dose: 0.05, 0.1, 0.5% IN DIET, Dose: 0.05, 0.1, 0.5% IN DIET, Tumor Site: Type of Lesion: LIVER: HEPATOCELLULAR CARCINOMA): active; positive

Compound: [O]=[Al][O][Si](=O)O[Si](=O)[O][Al]=[O]
- carcinogen call (Species: Rat, Strain/Sex: Wistar/Female (48/group), Route: Intratracheal, Dose: 6 mg instillations of 0.01-0.03 um particles given as 10 or 20 doses wk 26, study duration 115 or 121 wk or no treatment, Tumor Site: Type of Lesion: Lung: Bronchiolo-alveolar adenoma (12/48 and 11/47 in experimental animals vs 1/46 control animals), bronchiolo-alveolar): active; positive

Compound: Oc1ccc2ccccc2c1N=Nc1ccc(N=Nc2ccccc2)cc1
- carcinogen call (Species: MOUSE, Strain/Sex: SWISS-WEBSTER/FEMALE, Route: DERMAL, Dose: 0, 1% IN 0.1 ML 0.1% SODIUM LAURYL SULFATE 1/WK FOR 18 MO (STUDY DURATION: 18 MO)): inactive; negative
- carcinogen call (Species: MOUSE, Strain/Sex: SWISS-WEBSTER/MALE, Route: DERMAL, Dose: 0, 1% IN 0.1 ML 0.1% SODIUM LAURYL SULFATE 1/WK FOR 18 MO (STUDY DURATION: 18 MO)): inactive; negative

Compound: Cc1ccc([N+]#N)cc1
- carcinogen call (Species: MOUSE, Strain/Sex: SWISS/FEMALE, Route: SUBCUTANEOUS, Dose: 0, 50 UG/G 1/WK FOR 16 OR 19 WK (STUDY DURATION: 140 WK), Tumor Site: Type of Lesion: SUBCUTANEOUS TISSUE: TUMOR, SKIN: TUMOR): active; positive
- carcinogen call (Species: MOUSE, Strain/Sex: SWISS/MALE, Route: SUBCUTANEOUS, Dose: 0, 50 UG/G 1/WK FOR 16 OR 19 WK (STUDY DURATION: 140 WK), Tumor Site: Type of Lesion: SUBCUTANEOUS TISSUE: TUMOR): active; positive

Compound: Oc1cccc(O)c1
- carcinogen call (Species: MOUSE, Strain/Sex: B6C3F1/FEMALE, Route: GAVAGE, Dose: 0, 112, 225 MG/KG IN DEIONIZED WATER 5 D/WK FOR 104 WK (STUDY DURATION: 104 WK), Dose: 0, 112, 225 MG/KG IN DEIONIZED WATER 5 D/WK FOR 104 WK (STUDY DURATION: 104 WK)): inactive; negative
- carcinogen call (Species: MOUSE, Strain/Sex: B6C3F1/MALE, Route: GAVAGE, Dose: 0, 112, 225 MG/KG IN DEIONIZED WATER 5 D/WK FOR 104 WK (STUDY DURATION: 104 WK), Dose: 0, 112, 225 MG/KG IN DEIONIZED WATER 5 D/WK FOR 104 WK (STUDY DURATION: 104 WK)): inactive; negative
- carcinogen call (Species: RAT, Strain/Sex: F344/FEMALE, Route: GAVAGE, Dose: 0, 50, 100, 150 MG/KG IN DEIONIZED WATER 5 D/WK FOR 104 WK (STUDY DURATION: 104 WK), Dose: 0, 50, 100, 150 MG/KG IN DEIONIZED WATER 5 D/WK FOR 104 WK (STUDY DURATION: 104 WK)): inactive; negative
- carcinogen call (Species: RAT, Strain/Sex: F344/MALE, Route: GAVAGE, Dose: 0, 112, 225 MG/KG IN DEIONIZED WATER 5 D/WK FOR 104 WK (STUDY DURATION: 104 WK), Dose: 0, 112, 225 MG/KG IN DEIONIZED WATER 5 D/WK FOR 104 WK (STUDY DURATION: 104 WK)): inactive; negative

Compound: COCCN(N=O)C(N)=O
- carcinogen call (Species: RAT, Strain/Sex: F344/FEMALE, Route: INTRAVESICULAR, Dose: 0, 3.2 MG 2/WK FOR 17 WK (STUDY DURATION: LIFETIME), Tumor Site: Type of Lesion: BLADDER: TUMOR): active; positive

Compound: CC[C@H]1NC(=O)[C@@H]2[C@H](Cl)[C@H](Cl)CN2C(=O)[C@@H](CO)NC(=O)C[C@H](c2ccccc2)NC(=O)[C@H](CO)NC1=O
- carcinogen call (Species: MOUSE, Strain/Sex: DDNI/MALE, Route: ORAL, Dose: 0, 40, 60 UG IN DIET, 1/D FOR LIFE, Dose: 0, 40, 60 UG IN DIET, 1/D FOR LIFE, Tumor Site: Type of Lesion: HEMATOPOIETIC SYSTEM: RETICULOENDOTHELIOMA, LIVER: CARCINOMA, HEPATOCELLULAR ADENOMA): active; positive

Compound: N[C@@H](CCC(=O)NNc1ccc(CO)cc1)C(=O)O
- carcinogen call (Species: MOUSE, Strain/Sex: SWISS/FEMALE, Route: SUBCUTANEOUS, Dose: 0, 100 UG IN 0.01 ML PHYSIOLOGICAL SALINE 1/WK FOR 5 WK (STUDY DURATION: LIFETIME)): inactive; negative
- carcinogen call (Species: MOUSE, Strain/Sex: SWISS/FEMALE, Route: SUBCUTANEOUS, Dose: 0, 100 UG IN 0.01 ML PHYSIOLOGICAL SALINE ONCE (STUDY DURATION: LIFETIME)): inactive; negative
- carcinogen call (Species: MOUSE, Strain/Sex: SWISS/MALE, Route: SUBCUTANEOUS, Dose: 0, 50 UG IN 0.01 ML PHYSIOLOGICAL SALINE ONCE (STUDY DURATION: LIFETIME)): inactive; negative
- carcinogen call (Species: MOUSE, Strain/Sex: SWISS/MALE, Route: SUBCUTANEOUS, Dose: 0, 100 UG IN 0.01 ML PHYSIOLOGICAL SALINE 1/WK FOR 5 WK (STUDY DURATION: LIFETIME)): inactive; negative
